Test results from patent US20050025809A1, “Poly-4-hydroxybutyrate matrices for sustained drug delivery” (Tepha, Inc., priority 2003, published 2005).
Read-outs that look alike come from different tables or passages of the source.

What was measured:
[1] = Drug release from PHA3444 rods in PBS; assay type: physicochemical; conditions: PHA3444-34%:drug 2:1 rods
Source text: The paste was then introduced into a mold measuring 150×5×5 mm, and left to dry at ambient temperature.

[2] = PHA4400 loaded 10:1, PBS pH 7.4, 37° C.

With `CN(C)[C@@H]1C(O)=C(C(N)=O)C(=O)[C@@]2(O)C(O)=C3C(=O)c4c(O)cccc4[C@@](C)(O)[C@H]3C[C@@H]12` [TCN, Tetracycline (neutral)] the “burst of release” value [1] was “No burst of release was observed”, the average cumulative release ([1]; PBS pH 7.4, 37° C., at 17 days) was about 23% and the average cumulative release (PHA4400:drug 2:1 rods, PBS pH 7.4, 37° C., at 11 days) was about 9%. The “burst of release” value [2] was “no burst”, the “release order” value [2] was “almost perfect zero order release after the first hour” and the total release (PHA4400 loaded 10:1, in fifteen days) was 17%.
